Test results reported in patent US20250281499A1, “FUSED AMINO PYRIMIDINE COMPOUNDS FOR TREATMENT OF NEUROPATHIC AND NEURO-INFLAMMATORY PAIN” (Ovid Therapeutics Inc., priority 2024, published 2025).

How the values were obtained:
[1] = biological target: T1, KCC2 (Homo sapiens, UniProt Q9H2X9); experiment: Cell surface biotinylation of KCC2 in HEK-293 cells; type: cell-based; conditions: 15 min
T1 construct: expressed in transfected cells; host or cells: HEK-293 (ATCC CRL-1573), Lipofectamine 2000, used 48-72 h after transfection
T1 sequence (Q9H2X9 1-1116 isoform Q9H2X9-2): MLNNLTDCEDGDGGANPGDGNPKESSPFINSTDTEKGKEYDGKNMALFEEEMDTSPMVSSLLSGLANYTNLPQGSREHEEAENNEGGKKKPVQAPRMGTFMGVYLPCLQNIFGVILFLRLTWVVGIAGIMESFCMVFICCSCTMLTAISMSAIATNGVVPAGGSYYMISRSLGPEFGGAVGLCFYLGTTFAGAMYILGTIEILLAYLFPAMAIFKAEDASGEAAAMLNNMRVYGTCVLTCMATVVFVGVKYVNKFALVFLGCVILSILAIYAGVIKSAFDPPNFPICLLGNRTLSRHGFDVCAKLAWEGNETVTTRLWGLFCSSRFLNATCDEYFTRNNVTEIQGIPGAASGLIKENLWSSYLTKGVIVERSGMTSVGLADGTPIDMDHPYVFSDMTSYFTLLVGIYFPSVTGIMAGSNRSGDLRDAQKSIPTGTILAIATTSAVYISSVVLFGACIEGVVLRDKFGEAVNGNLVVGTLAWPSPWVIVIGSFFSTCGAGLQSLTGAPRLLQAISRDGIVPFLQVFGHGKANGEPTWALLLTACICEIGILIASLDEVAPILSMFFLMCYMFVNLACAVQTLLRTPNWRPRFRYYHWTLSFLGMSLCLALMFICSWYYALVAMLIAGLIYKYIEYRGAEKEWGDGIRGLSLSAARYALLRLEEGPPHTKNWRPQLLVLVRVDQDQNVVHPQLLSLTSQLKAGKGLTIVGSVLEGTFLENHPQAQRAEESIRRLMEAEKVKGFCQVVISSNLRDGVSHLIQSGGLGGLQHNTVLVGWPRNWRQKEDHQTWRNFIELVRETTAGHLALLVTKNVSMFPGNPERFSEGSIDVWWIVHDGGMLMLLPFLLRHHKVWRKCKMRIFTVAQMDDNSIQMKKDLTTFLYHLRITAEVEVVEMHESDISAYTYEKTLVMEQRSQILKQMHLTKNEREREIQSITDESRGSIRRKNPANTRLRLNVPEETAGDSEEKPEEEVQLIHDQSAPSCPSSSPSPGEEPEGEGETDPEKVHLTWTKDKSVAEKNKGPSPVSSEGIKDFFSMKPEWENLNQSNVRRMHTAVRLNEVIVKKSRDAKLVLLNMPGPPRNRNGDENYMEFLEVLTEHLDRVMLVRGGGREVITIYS
Description: Cell Culture and biotinylation. HEK-293 cells were purchased from ATCC (CRL-1573) and transfected with human KCC2 and GFP expression plasmids using Lipofectamine 2000. Cells were utilized for experimentation 48-72 h following transfection. Cells were biotinylated at 4° C. using NHS-Biotin. Following lysis and purification on immobilized avidin beads, cell surface and total fractions were subject to immunoblotting as outlined previously (Conway et al., 2017, supra).
The reliability of the biotinylation procedure was assessed via immunoblotting with antibodies against the cytosolic protein actin. Actin was present in the total lysates but was absent from the surface fractions (FIG. 2C).

[2] = biological target: T1, KCC2; experiment: FLIPR thallium (Tl+) flux assay in HEK-293 cells expressing KCC2; type: cell-based; conditions: saturating concentration of 3 μM, 1% BCD vehicle
Description: A multi-tiered high-throughput screening assay was used, leveraging a proprietary library of 1.3 million small molecule compounds from AstraZeneca (Cambridge, UK) to identify chemical entities capable of activating KCC2. A single point concentration of 30 μM was used to identify potassium flux using an established thallium (TI+) influx FLIPR assay as the primary read out in HEK-293 cells overexpressing KCC2 (Cardarelli et al., Nat. Med. 23, 1394-1396 (2017); Conway et al., J Biol Chem 292, 21253-21263 (2017); Lee et al., 2022, supra).
Cell Culture and biotinylation. […]
FLIPR TI Flux assay. HEK-293 cells were washed with HBSS, and then incubated with loading buffer containing TI sensitive fluorescent dye (https://www.moleculardevices.com), 20 μM bumetanide 20 μM ouabain and 2.5 mM probenecid for 1 h at room temperature (RT) under control conditions or with drugs in the dark using a FlexStation 3 microplate reader (Molecular Devices) and imaged […] for 30 min. Stimulus buffer was added containing 5 mM K^+/0.5 mM Tl^+ and cells were imaged every 1.5 over a 190 second time course The initial rate Tl^+ uptake (Relative Fluorescence Units (RFU) per second) was determined following addition of the stimulus buffer as outlined previously (Conway et al., 2017, supra) (Lee et al., 2022, supra). […]

C[C@@H]1CN(c2nc3c(c(Nc4ccc(C5CCCCC5)cc4)n2)COC3)CCO1 [Compound A, (R)—N-(4-cyclohexylphenyl)-2-(2-methylmorpholino)-5,7-dihydrofuro[3,4-d]pyrimidin-4-amine]
level of KCC2 on the plasma membrane (surface/total) ([1]; 0.3 μM): 94.5 ±8.4 % of control
level of KCC2 on the plasma membrane (surface/total) ([1]; 3 μM): 104.7±8.4 % of control
maximum potentiation of KCC2 [2]: 90%
